Test results taken from ChEMBL document CHEMBL1154774, “Neglected tropical diseases: multi-target-directed ligands in the search for novel lead candidates against Trypanosoma and Leishmania” (J Med Chem, 2009).
Each block holds one compound with its values, some of them ahead of it.

Key:
Trypanosoma cruzi = assay: Antitrypanosomal activity against Trypanosoma cruzi Tulahuen 2; type: functional, organism-based
[1] = Selectivity index, ratio of cytotoxicity against mammalian cells to IC50 for Trypanosoma cruzi Tulahuen 2; type: toxicity, cell-based; conditions: read-out: Selectivity Index
Trypanothione reductase = Trypanothione reductase (Trypanosoma cruzi, UniProt P28593); assay: Inhibition of Trypanosoma cruzi trypanothione reductase
Sequence of Trypanothione reductase (P28593 whole entry): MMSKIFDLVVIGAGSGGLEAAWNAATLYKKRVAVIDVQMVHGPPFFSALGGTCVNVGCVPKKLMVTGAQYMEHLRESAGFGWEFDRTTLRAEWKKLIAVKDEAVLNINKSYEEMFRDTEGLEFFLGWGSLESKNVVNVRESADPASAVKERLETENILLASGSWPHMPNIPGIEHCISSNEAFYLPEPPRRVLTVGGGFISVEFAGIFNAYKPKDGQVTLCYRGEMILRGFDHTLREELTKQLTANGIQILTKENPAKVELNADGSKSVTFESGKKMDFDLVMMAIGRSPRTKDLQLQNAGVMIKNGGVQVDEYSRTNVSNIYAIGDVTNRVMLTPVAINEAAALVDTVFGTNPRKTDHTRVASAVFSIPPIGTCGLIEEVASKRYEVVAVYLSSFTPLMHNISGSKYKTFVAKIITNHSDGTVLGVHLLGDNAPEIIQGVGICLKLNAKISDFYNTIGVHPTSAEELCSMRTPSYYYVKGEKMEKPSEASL

[2] = Selectivity index, ratio of cytotoxicity against mammalian cells to IC50 for Trypanosoma brucei rhodesiense; type: toxicity, cell-based; conditions: read-out: Selectivity Index
Leishmania mexicana = assay: Leishmanistatic activity against Leishmania mexicana; type: functional

IC50 (Trypanosoma cruzi): 15 µM | IC50 (Trypanothione reductase): 43 µM
SMILES: NC(=S)N/N=C/c1ccc(OCc2ccc3no[n+]([O-])c3c2)cc1
selectivity ratio [1]: 27

SMILES: O=C1C=C(Oc2ccccc2)C(=O)c2ccccc21
selectivity ratio [2]: 74

SMILES: C/C(=N/Nc1ccccn1)[C@H]1CC[C@H]2[C@@H]3CC[C@H]4C[C@@H](O)CC[C@]4(C)[C@H]3CC[C@]12C
growth inhibition (GI) (Leishmania mexicana): 39%
